Reference: US10723716B2, “Alpha-helix mimetics as modulators of Abeta self-assembly” (New York University, priority 2016, dated 2020)
Entries after “also recorded” stand apart in the source; their conditions may differ. Like-named read-outs stand apart in the source and are kept apart here.

Tests used:
IAPP [1] = molecular target: T1, IAPP (Homo sapiens, UniProt P10997); test: ThT-based kinetic assay of IAPP aggregation; assay type: biochemical; conditions: for effect on IAPP fibrillation / amyloid formation (ThT): equimolar ratio (IAPP 10 μM, FIG. 25c, 26c, 27m)
T1 construct: purchased Anaspec (Fremont, Calif., USA)
T1 sequence (P10997 34-70 limits assumed): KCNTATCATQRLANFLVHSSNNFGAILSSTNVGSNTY
Method: Kinetic assays were conducted on a FlexStation 3 Multi-Mode Microplate reader from Molecular Devices (Sunnyvale, Calif., USA). Experiments were conducted in triplicate in a 96-well plate with a final volume of 200 μL per well. Every measurement was an average of 50 readings. The aggregation of an amyloidogenic peptide (Aβ40, Aβ42, or IAPP) was initiated by the addition of the peptide from a stock solution (in DMSO, 0.5-1 mM) to phosphate buffer. The final concentration of each peptide was different based on their aggregation. The stoichiometry of ThT dye for each peptide was 0.5:1 (ThT:peptide). Peptide aggregation was monitored by ThT fluorescence (λex=445 nm and λem=485 nm). The blank sample contained all the components of the peptide samples except the peptide. The sample data were processed by subtracting the fluorescence of the blank sample. The fluorescence intensity data was then normalized by setting the maximum value to 1.
Kinetic assays in the presence of the compounds of the invention were conducted under the same conditions. The small molecules were added from a stock solution (1 mM or 10 mM in DMSO) to keep the final concentration of DMSO less than 1.0% (v/v). Small molecules were added to the wells with ThT and buffer and mixed gently with a pipette before adding the peptide. To keep the conditions identical, an equal amount of DMSO was added to the wells with the peptide-only control reactions.
Kinetic profiles were processed using Origin (version 9.1). Kinetic curves were fit using the built-in sigmoidal fit. Each run was fit independently to extract the t50 (time required to reach 50% of the maximum fluorescence intensity). Error bars represent standard deviations from the mean of at least three independent experiments.

[2] = tested on: Aβ42 mediated toxicity in mouse neuroblastoma (N2a) cells; test: Aβ42 mediated toxicity in Neuro-2a cells (MTS cell viability); assay type: cell-based; conditions: for IC50: 5 μM Aβ42, N2a cells, read-out: IC50 (concentration required to inhibit 50% cell toxicity induced by 5 μM Aβ42); for cell viability, delayed addition: in % (unit assumed)
[3] = tested on: Aβ42 mediated toxicity in mouse neuroblastoma (N2a) cells; test: as above; assay type: cell-based; conditions: for cell viability: 5 μM Aβ42, equimolar ratio, 72 h; for effect on Aβ42 mediated cytotoxicity: equimolar ratio, Neuro-2a cells
Method: Cell viability was determined using a CellTiter 96® AQueous One Solution Cell Proliferation Assay (MTS) kit (Promega), which measures the reduction of the tetrazolium compound MTS (3-(4,5-dimethylthiazol-2-yl)-5-(3-carboxymethoxyphenyl)-2-(4-sulfophenyl)-2H-tetrazolium, inner salt) to soluble formazan by mitochondrial dehydrogenase enzyme in living cells. Formazan can be measured at 490 nm according to the manufacturer's instructions.
Neuro-2a cells (ATCC® […]) were maintained in serum-containing media [Dulbecco's Modified Eagle's Medium—high glucose (DMEM, Sigma) supplemented with 10% foetal bovine serum (FBS), 4 mM L-Glutamine (Sigma), and 1% penicillin/streptomycin (Sigma)] in 5% CO2 at 37° C. Once the cells reached ˜95% confluence, they were split (using 0.25% trypsin-EDTA, Sigma, St. Louis, USA), seeded at a density of 5×10^3 cells/well in 100 μL complete medium in 96-well plates and cultured for 48 h. Thereafter, the media was removed, the cells washed with phosphate buffered saline (PBS), and 90 μL of serum-free DMEM was added to the wells. A solution (A) containing 50 μM Aβ42 in NaOH (pH 10.5) was prepared and kept on ice, and a solution (B) containing 50 μM of the oligopyridylamide compound, H2O (2.33 μL/well) and 1× and 10×PBS was prepared and kept at room temperature. The solutions were combined, vortexed and 10 μL of this solution immeadiatly added to each well. The final concentrations in the wells were: 5 μM Aβ42, 5 μM oligopyridylamide, 200 μM NaOH, 0.1×PBS and 0.5% (v/v) DMSO.
To investigate the toxic effect of the peptide alone on cell viability, solution (B) without the oligopyridylamide compound was mixed with solution (A), while the effect of the oligopyridylamide compound alone was determined by adding solution (A) without peptide to solution (B). The effect of oligopyridylamides on seed-catalyzed Aβ42 aggregation was probed by preparing an additional solution (C) containing 0.5 μM seeds. The volume contributed by solution (C) was taken into account in preparing solution (B). Solution (C) was mixed with solution (B), and the resulting mixture was then added to solution (A) shortly before addition to the wells. To study the effect of oligopyridylamides on the oligomeric states of Aβ42, solution (A) was mixed with solution (B) without inhibitor and incubated at room temperature for 1, 2 or 3 h. Subsequently, 50 μM oligopyridylamides was added to the mixture, which was then immediately added to the cells. After culturing for 72 h in 5% CO2 at 37° C., 20 μL of MTS reagent was added to each well. The MTS reagent was incubated for 2.5 h at 37° C., and absorbance of the soluble formazan product (λ=490 nm) of MTS reduction was measured on a Synergy H1MF Multi-Mode microplate-reader (BioTek, Winooski, Vt., USA), with a reference wavelength of 650 nm to subtract the background. Wells treated with a solution containing serum-free DMEM, 200 μM NaOH, 0.1×PBS and 0.5% (v/v) DMSO served as control. MTS reduction was determined from the ratio of the absorbance of the treated wells to the control wells. Each data point represents an average of four independent quadruplet-well trials.

IAPP [4] = molecular target: T1, IAPP; test: Lipid (LUV) catalyzed IAPP aggregation, ThT; assay type: biochemical; conditions: 10 μM IAPP, LUVs (DOPG:DOPC 1:1, 600 μM), equimolar ratio
Method: LUVs were prepared using an equimolar ratio of dioleoylphosphatidylglycerol (DOPG) and dioleoylphosphatidylcholine (DOPC). A solution of DOPG and DOPC (10 mg/mL each) in chloroform was mixed, dried over a stream of argon (g) for 1 h, and then lyophilized for 6 h (0.1×10^−3 bar). The solid was then rehydrated in 1 mL phosphate buffer for 30 min. The turbid solution (10 mg/mL, 1:1, DOPG:DOPC) was then extruded (21 times) through 100 nm diameter filters (Whatman, GE Healthcare, Marlborough, Mass., USA). The concentration of the phospholipid content in the extruded material was confirmed by calculating total phosphorus using total phosphate assay as described in Chen, P. S.; Toribara, T. Y.; Warner, H. Anal. Chem. 1956, 28, 1756-1758.
The effect of the α-helical mimetics was also assessed on the membrane associated α-helical conformation of IAPP.

[5] = mouse/rat NG108-15, N2a, 5 μM Aβ42 + seeds (10% v/v), 5 μM compound, without compound 31%, read-out: cell viability, seed-induced Aβ42 cytotoxicity
[6] = compound added to 5 μM Aβ42 after 1 h from start of amyloid reaction, Aβ42 alone 46%
[7] = compound added to 5 μM Aβ42 after 2 h from start of amyloid reaction, Aβ42 alone 57%
[8] = compound added to 5 μM Aβ42 after 3 h from start of amyloid reaction, Aβ42 alone 62%

Row | SMILES | effect on IAPP fibrillation / amyloid formation (ThT) (IAPP [1]) | IC50 ([2]; mouse/rat NG108-15, N2a) | viability at 5 µM [2, 5] | cell viability [3] | cell viability, preformed Aβ42 oligomers [3, 6] | cell viability, preformed Aβ42 oligomers [3, 7] | cell viability, preformed Aβ42 oligomers [3, 8] | effect on Aβ42 mediated cytotoxicity [3] | rel. t50 of IAPP fibrillation (IAPP [4]) | effect on aggregation of IAPP (ThT) (IAPP [1]; 20 μM IAPP, equimolar ratio (FIG. 3b, 3c, 13)) | IC50 [2] | cell viability, delayed addition ([2]; ADH-41 added after 24 h of exposure to 5 μM Aβ42) | cell viability, delayed addition ([2]; ADH-41 added after 48 h of exposure to 5 μM Aβ42) | viability at 5 µM ([2]; mouse/rat NG108-15, N2a, 24 h, read-out: cell viability) | viability at 5 µM ([2]; mouse/rat NG108-15, N2a, read-out: cell viability, delayed addition) | rank order for the antagonist activity ([3]; Aβ42 mediated cytotoxicity and aggregation, 5 μM, 1:1 (FIG. 26a))
1 | COC(=O)c1ccc(NC(=O)c2ccc(NC(=O)c3ccc(NC(=O)c4ccc([N+](=O)[O-])c(OCC(C)C)n4)c(OCc4ccccc4)n3)c(OCC(=O)O)n2)c(OCC(=O)O)n1 [ADH-31] | completely suppressed | 2500 ± 100 nM | 69% | 97%±1% | 90% | 89% | 95% | effective at rescuing cells | – | – | – | – | – | – | – | –
2 | COC(=O)c1ccc(NC(=O)c2ccc(NC(=O)c3ccc([N+](=O)[O-])c(OCc4ccccc4)n3)c(OCCCN)n2)c(OCCCN)n1 [ADH-41] | did not have any effect; also recorded: no effect | 1450 nM | 63% | 98±2% | 72% | 68% | 67% | completely inhibited; also recorded: effective at rescuing cells; also recorded: equally effective; also recorded: completely rescues | 0.8±0.2 | agonist | 1400 ± 100 nM | 79±2 | 102±2 | 99% | 93 ± 2% | ADH41>ADH46>ADM-40≥ADM-45A
